Data from US20190008797A1, “ESTROGEN RECEPTOR ALPHA COLIGANDS, AND METHODS OF USE THEREOF” (priority 2016, published 2019).

How the values were obtained:
hPR-B = target: T1, hPR-B (Homo sapiens, UniProt P06401); experiment: TAT3-luciferase reporter, U2OS cells cotransfected with hPR-B; assay type: cell-based; settings: 5 μM + 10 nM progesterone, 24 hours
T1 construct: expressed in transfected cells; host or cells: U2OS
T1 sequence (P06401 1-933): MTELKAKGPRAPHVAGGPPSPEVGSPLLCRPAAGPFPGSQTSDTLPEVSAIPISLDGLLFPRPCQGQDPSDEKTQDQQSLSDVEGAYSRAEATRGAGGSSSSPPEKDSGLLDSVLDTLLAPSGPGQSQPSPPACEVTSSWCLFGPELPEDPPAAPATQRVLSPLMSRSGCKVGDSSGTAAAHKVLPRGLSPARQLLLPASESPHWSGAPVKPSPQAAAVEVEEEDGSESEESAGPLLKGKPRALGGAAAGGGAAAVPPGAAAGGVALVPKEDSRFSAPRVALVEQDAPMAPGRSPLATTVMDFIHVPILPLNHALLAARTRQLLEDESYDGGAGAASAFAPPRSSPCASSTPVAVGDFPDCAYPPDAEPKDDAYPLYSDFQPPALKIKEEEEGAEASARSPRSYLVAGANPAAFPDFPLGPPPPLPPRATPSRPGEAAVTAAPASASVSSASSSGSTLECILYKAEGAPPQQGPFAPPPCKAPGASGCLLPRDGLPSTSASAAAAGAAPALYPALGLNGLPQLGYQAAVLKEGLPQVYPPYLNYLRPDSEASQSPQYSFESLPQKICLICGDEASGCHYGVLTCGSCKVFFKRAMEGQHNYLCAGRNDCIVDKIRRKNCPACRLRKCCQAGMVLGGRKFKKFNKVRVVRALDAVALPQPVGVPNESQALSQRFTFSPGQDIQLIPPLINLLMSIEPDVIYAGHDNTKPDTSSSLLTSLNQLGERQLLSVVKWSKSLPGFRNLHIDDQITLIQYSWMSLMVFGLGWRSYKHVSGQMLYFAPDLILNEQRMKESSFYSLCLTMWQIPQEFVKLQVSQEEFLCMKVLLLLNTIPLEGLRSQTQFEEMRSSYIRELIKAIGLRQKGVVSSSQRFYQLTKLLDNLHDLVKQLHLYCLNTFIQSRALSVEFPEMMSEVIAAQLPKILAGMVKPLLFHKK

c-MYC = c-MYC mRNA (real-time PCR) and protein (Western blot) in MCF-7 cells; settings: greater than tamoxifen
U2OS-ERα cells = experiment: Microarray gene regulation in U2OS-ERα cells; assay type: cell-based, human
Description: Total cellular RNA was isolated utilizing the Aurum™ RNA isolation kit (Bio-Rad, Hercules, Calif.) per the manufacturer's directions. RNA isolates were first quantified by nanodrop®, and then qualitatively evaluated by the Bio-Rad Experion™ system per the manufacturer's instructions. Biotin-labeled cRNA samples were prepared using 750 ng of total RNA. Biotin-labeled samples were evaluated by both 260/280 absorbance spectrophotometry and capillary electrophoresis. Labeled cRNA samples were hybridized overnight against Human genome HG U133A-2.0 GeneChip® arrays, (Affymetrix, Santa Clara, Calif.). All treatments were done in triplicate with the same batch of microarrays. The data was analyzed as previously described (Saunier, E. F., et al. Estrogenic plant extracts reverse weight gain and fat accumulation without causing mammary gland or uterine proliferation. PloS one 6, e28333 (2011)).
FIGS. 2a-2f2′, 3′, 4′-THC behaves as a unique coagonist on gene expression in U2OS-ERα cells. […] Expression was assessed by up regulation or down regulation of 3-fold or more and a P-value≤0.05. […] Error bars are ±SEM.

MCF-7 cells = experiment: ERE-TK-Luc transfection assay in MCF-7 cells; settings: 1, 5 or 10 μM + 10 nM E2
NKG2E promoter = experiment: ChIP of ERα and SRC-2 at the NKG2E promoter in U2OS-ERα cells; assay type: cell-based, human; settings: 2′,3′,4′-THC/E2 combination, 2 hr
Description: Cells were fixed with 11X formaldehyde solution for 10 minutes at 37° C. and the reaction was quenched for 2 minutes with 1.25M glycine solution as previously described (Cvoro, A., et al. Distinct Roles of Unliganded and Liganded Estrogen Receptors in Transcriptional Repression. Mol Cell 21, 555-564 (2006)). Cells were washed and collected in collecting buffer (100 mM Tris-HCl pH 9.4 and 10 mM dithiothreitol (DTT)) supplemented with a protease inhibitor cocktail. Pellets were frozen overnight at −80° C. then were thawed on ice and lysed (50 mM Tris pH 7.4, 150 mM NaCl, 10 mM ethylenediaminetetraacetic acid (EDTA), 0.5 mM ethylene glycol tetraacetic acid (EGTA), 0.5% Triton™ X-100 and 1X protease inhibitor cocktail). Cell lysates were centrifuged and cell pellet was resuspended in RIPA buffer. Samples were sonicated and supernatant was collected. Approximately 5% of each sample was taken for input and stored at 4° C. Immune complexes were collected using magnetic sepharose beads (GE Healthcare, Pittsburgh, Pa.) equilibrated in radioimmunoprecipitation assay (RIPA) buffer. Complexes were collected over a period of 3 to 4 hours rotating at 4° C. […]
FIGS. 2a-2f2′, 3′, 4′-THC behaves as a unique coagonist on gene expression in U2OS-ERα cells. […] Expression was assessed by up regulation or down regulation of 3-fold or more and a P-value≤0.05. […]

## O=C(/C=C/c1ccccc1)c1ccc(O)c(O)c1O [2′, 3′, 4′-THC, 2′, 3′, 4′-trihydroxychalcone]
hPR-B
  synergy with receptor agonist: no synergy
c-MYC; 5 μM + 10 nM E2, 4 hours
  effect on E2-stimulation of c-MYC mRNA: inhibited
c-MYC; increasing doses + 10 nM E2, 1 hour
  effect on E2-stimulation of c-MYC protein levels: inhibited
U2OS-ERα cells; 10 nM E2 or 5 μM 2′,3′,4′-THC, 3-fold or more, P≤0.05
  number of genes regulated, compound alone: 31 genes
U2OS-ERα cells; 5 μM + 10 nM E2
  genes regulated by the combination that were also regulated by E2: 534 genes
  number of genes regulated by the 2′,3′,4′-THC/E2 combination: 1,358 genes
  unique genes only regulated by the 2′,3′,4′-THC/E2 combination: 824 genes
MCF-7 cells
  E2 activation of ERE-TK-Luc: dose-dependent synergistic increase
NKG2E promoter
  recruitment of ERα to the NKG2E promoter: increased recruitment
  recruitment of SRC-2 to the NKG2E promoter: increased recruitment
